Calls of active or inactive are those of the source. No rule for the calls is given here.
System: CCRIS mutagenicity, Ames/micronucleus/aberration tests
Assay: CCRIS mutagenicity studies
[1] = Test System: AMES SALMONELLA TYPHIMURIUM, Strain/Indicator: TA98, Metabolic Activation: NONE, Method: STANDARD PLATE
[2] = Test System: AMES SALMONELLA TYPHIMURIUM, Strain/Indicator: TA98, Metabolic Activation: RAT, LIVER, S-9, AROCLOR 1254, Method: STANDARD PLATE
[3] = Test System: AMES SALMONELLA TYPHIMURIUM, Strain/Indicator: TA100, Metabolic Activation: NONE, Method: STANDARD PLATE
[4] = Test System: AMES SALMONELLA TYPHIMURIUM, Strain/Indicator: TA100, Metabolic Activation: RAT, LIVER, S-9, AROCLOR 1254, Method: STANDARD PLATE
[5] = Test System: AMES SALMONELLA TYPHIMURIUM, Strain/Indicator: TA1535, Metabolic Activation: NONE, Method: STANDARD PLATE
[6] = Test System: AMES SALMONELLA TYPHIMURIUM, Strain/Indicator: TA1535, Metabolic Activation: RAT, LIVER, S-9, AROCLOR 1254, Method: STANDARD PLATE
[7] = Test System: AMES SALMONELLA TYPHIMURIUM, Strain/Indicator: TA1537, Metabolic Activation: NONE, Method: PREINCUBATION
[8] = Test System: AMES SALMONELLA TYPHIMURIUM, Strain/Indicator: TA1537, Metabolic Activation: NONE, Method: STANDARD PLATE
[9] = Test System: AMES SALMONELLA TYPHIMURIUM, Strain/Indicator: TA1537, Metabolic Activation: RAT, LIVER, S-9, AROCLOR 1254, Method: STANDARD PLATE
[10] = Test System: AMES SALMONELLA TYPHIMURIUM, Strain/Indicator: TA1538, Metabolic Activation: NONE, Method: STANDARD PLATE
[11] = Test System: AMES SALMONELLA TYPHIMURIUM, Strain/Indicator: TA1538, Metabolic Activation: RAT, LIVER, S-9, AROCLOR 1254, Method: STANDARD PLATE
[12] = Test System: AMES SALMONELLA TYPHIMURIUM, Strain/Indicator: TA98, Metabolic Activation: NONE, Method: PREINCUBATION
[13] = Test System: AMES SALMONELLA TYPHIMURIUM, Strain/Indicator: TA100, Metabolic Activation: NONE, Method: PREINCUBATION
[14] = Test System: AMES SALMONELLA TYPHIMURIUM, Strain/Indicator: TA1535, Metabolic Activation: NONE, Method: PREINCUBATION

Measured: mutagenic call

O=C1c2cccc(O)c2C(=O)c2c(O)cccc21
active: Test System: AMES SALMONELLA TYPHIMURIUM, Strain/Indicator: TA102, Metabolic Activation: NONE, Method: PREINCUBATION active; positive | Test System: AMES SALMONELLA TYPHIMURIUM, Strain/Indicator: TA102, Metabolic Activation: RAT LIVER S-9, AROCLOR 1254, Method: STANDARD PLATE active; positive | Test System: AMES SALMONELLA TYPHIMURIUM, Strain/Indicator: TA102, Metabolic Activation: RAT, LIVER, S-9, AROCLOR 1254, Method: STANDARD PLATE active; positive | Test System: AMES SALMONELLA TYPHIMURIUM, Strain/Indicator: TA102, Metabolic Activation: RAT, LIVER, S-9, PHENOBARBITONE AND BETA-NAPHTHOFLAVONE, Method: STANDARD PLATE active; positive | Test System: AMES SALMONELLA TYPHIMURIUM, Strain/Indicator: TA102, Metabolic Activation: RAT, LIVER, S-9, Method: PREINCUBATION active; positive | Test System: AMES SALMONELLA TYPHIMURIUM, Strain/Indicator: TA102, Metabolic Activation: S-9, Method: STANDARD PLATE active; positive | [7] active; positive | [8] active; positive | [9] active; positive | Test System: AMES SALMONELLA TYPHIMURIUM, Strain/Indicator: TA1537, Metabolic Activation: RAT, LIVER, S-9, Method: PREINCUBATION active; positive | Test System: AMES SALMONELLA TYPHIMURIUM, Strain/Indicator: TA2638, Metabolic Activation: S-9, Method: STANDARD PLATE active; positive
inactive: [1] inactive; negative | [2] inactive; negative | [3] inactive; negative | [4] inactive; negative | Test System: AMES SALMONELLA TYPHIMURIUM, Strain/Indicator: TA102, Metabolic Activation: NONE, Method: STANDARD PLATE inactive; negative | [5] inactive; negative | [6] inactive; negative | [10] inactive; negative | [11] inactive; negative | Test System: E. COLI, Strain/Indicator: WP2 (PKM101), Metabolic Activation: RAT, LIVER, S-9, PHENOBARBITONE AND BETA-NAPHTHOFLAVONE, Method: STANDARD PLATE inactive; negative | Test System: E. COLI, Strain/Indicator: WP2 (PKM101), Metabolic Activation: S-9, Method: STANDARD PLATE inactive; negative | Test System: E. COLI, Strain/Indicator: WP2 UVRA (PKM101), Metabolic Activation: RAT, LIVER, S-9, PHENOBARBITONE AND BETA-NAPHTHOFLAVONE, Method: STANDARD PLATE inactive; negative | Test System: E. COLI, Strain/Indicator: WP2 UVRA (PKM101), Metabolic Activation: S-9, Method: STANDARD PLATE inactive; negative

FC(F)(F)c1ccc(Cl)c(Cl)c1
inactive: Test System: E. coli, Strain/Indicator: WP2uvrA/pKM101, Metabolic Activation: None, Method: Preincubation inactive; negative | Test System: E. coli, Strain/Indicator: WP2uvrA/pKM101, Metabolic Activation: Rat, Liver, S9, Sodium phenobarbital and 5,6-benzoflavone, Method: Preincubation inactive; negative

COc1c(O)cc2oc(-c3ccc(O)cc3)cc(=O)c2c1O
inactive: [12] inactive; negative | Test System: AMES SALMONELLA TYPHIMURIUM, Strain/Indicator: TA98, Metabolic Activation: RAT LIVER S-9, SODIUM BARBITAL AND BETA-NAPHTHAFLAVONE, Method: PREINCUBATION inactive; negative | [13] inactive; negative | Test System: AMES SALMONELLA TYPHIMURIUM, Strain/Indicator: TA100, Metabolic Activation: RAT LIVER S-9, SODIUM BARBITAL AND BETA-NAPHTHAFLAVONE, Method: PREINCUBATION inactive; negative

C(=C/c1ccccc1)/c1ccccc1
inactive: Test System: AMES SALMONELLA TYPHIMURIUM, Strain/Indicator: TA98, Metabolic Activation: HAMSTER, LIVER, S-9, AROCLOR 1254, Method: PREINCUBATION inactive; negative | [12] inactive; negative | Test System: AMES SALMONELLA TYPHIMURIUM, Strain/Indicator: TA98, Metabolic Activation: RAT, LIVER, S-9, AROCLOR 1254, Method: PREINCUBATION inactive; negative | Test System: AMES SALMONELLA TYPHIMURIUM, Strain/Indicator: TA100, Metabolic Activation: HAMSTER, LIVER, S-9, AROCLOR 1254, Method: PREINCUBATION inactive; negative | [13] inactive; negative | Test System: AMES SALMONELLA TYPHIMURIUM, Strain/Indicator: TA100, Metabolic Activation: RAT, LIVER, S-9, AROCLOR 1254, Method: PREINCUBATION inactive; negative | Test System: AMES SALMONELLA TYPHIMURIUM, Strain/Indicator: TA1535, Metabolic Activation: HAMSTER, LIVER, S-9, AROCLOR 1254, Method: PREINCUBATION inactive; negative | [14] inactive; negative | Test System: AMES SALMONELLA TYPHIMURIUM, Strain/Indicator: TA1535, Metabolic Activation: RAT, LIVER, S-9, AROCLOR 1254, Method: PREINCUBATION inactive; negative | Test System: AMES SALMONELLA TYPHIMURIUM, Strain/Indicator: TA1537, Metabolic Activation: HAMSTER, LIVER, S-9, AROCLOR 1254, Method: PREINCUBATION inactive; negative | [7] inactive; negative | Test System: AMES SALMONELLA TYPHIMURIUM, Strain/Indicator: TA1537, Metabolic Activation: RAT, LIVER, S-9, AROCLOR 1254, Method: PREINCUBATION inactive; negative

CN[C@@H]1[C@@H](O)[C@@H](O[C@@H]2[C@@H](O)[C@H](O[C@H]3O[C@H](CN)[C@@H](O)[C@H](O)[C@H]3O)[C@@H](N)C[C@H]2NC(=O)[C@@H](O)CN)OC[C@]1(C)O
inactive: [12] inactive; negative | [13] inactive; negative | [14] inactive; negative | Test System: E. COLI, Strain/Indicator: WP2 UVRA, Metabolic Activation: NONE, Method: PREINCUBATION inactive; negative

CCOP(=S)(OCC)Oc1ccc([N+](=O)[O-])cc1
active: [13] active; positive | Test System: AMES SALMONELLA TYPHIMURIUM, Strain/Indicator: TA100, Metabolic Activation: RAT, LIVER, S-9, KANECHLOR 500, Method: PREINCUBATION active; positive | Test System: AMES SALMONELLA TYPHIMURIUM, Strain/Indicator: TA100, Metabolic Activation: S-9, Method: STANDARD PLATE active; positive
inactive: [12] inactive; negative | Test System: AMES SALMONELLA TYPHIMURIUM, Strain/Indicator: TA98, Metabolic Activation: RAT, LIVER, S-9, KANECHLOR 500, Method: PREINCUBATION inactive; negative | [3] inactive; negative

O=C1c2ccccc2-c2cccc3cccc1c23
inactive: [1] inactive; negative
active: [2] active; positive | [4] active; positive

Nc1ccc(N)c2c1C(=O)c1cccc([N+](=O)[O-])c1C2=O
active: [1] active; positive | [2] active; positive | [8] active; positive | [10] active; positive | [11] active; positive
inactive: [3] inactive; negative | [4] inactive; negative | [5] inactive; negative | [6] inactive; negative | [9] inactive; negative | Test System: AMES SALMONELLA TYPHIMURIUM, Strain/Indicator: TA1978, Metabolic Activation: NONE, Method: STANDARD PLATE inactive; negative

CC(=O)Nc1ccc2c3c(cccc13)-c1cc(O)ccc1-2
active: [1] active; positive | [2] active; positive

C1CCC2=NCCCN2CC1
inactive: Test System: Mouse lymphoma, Strain/Indicator: L5178Y (tk+/tk-), Metabolic Activation: None, Method: Suspension/plate inactive; negative | Test System: Mouse lymphoma, Strain/Indicator: L5178Y (tk+/tk-), Metabolic Activation: Rat, Liver, S-9, Aroclor 1254, Method: Suspension/plate inactive; negative

Reference: PubChem BioAssay AID1259407 (Chemical Carcinogenesis Research Information System (CCRIS), 2018)
